Measured values reported in patent US11882816B2, “Genetically engineered non-human mammal, construction method therefor and use thereof” (priority 2017, dated 2024).

Key:
homozygous mice [1] = test: Blood pressure of homozygous mice on HF diet with/without doxycycline, weekly MTX injection (non-invasive tail pressure measurement); type: in vivo; conditions: male homozygous mice, HF diet with/without Dox, MTX 1 mg/kg i.p. once a week; FIG. 12A
Procedure: The mice are divided into 3 groups for experiments, wild-type mice (Wt), homozygous mice (Hom) and heterozygous mice (Het), with each group having 15 mice. The mice are fed with normal diet (Chow) until 8 weeks old, and are administrated tetracycline analog doxycycline (1 to 2 mg/ml) with water. The blood pressure changes of mice are measured periodically. The method for measuring the blood pressure of mice is the method of non-invasive tail pressure measurement (iiTC Life Science, Woodland Hills, CA), wherein the mice are fixed in the sleeve and stay quiet in the sleeve for 10 minutes. Then the instrument is operated to measure the blood pressure at the tail of mice using […], three measurements are made for each operation, and the average is taken. Mice blood is collected, and body weight, heart weight, spleen weight, blood lipids and blood pressure of mice are measured.
(§1) Homozygous mice, divided into 5 groups, are to fed with normal diet (Chow), high-fat diet (HF), high-fat diet plus boostin (HF+D), high-fat diet plus methotrexate (MTX) (HF+M), and high-fat diet plus boostin and methotrexate (HF+D+M). […] The blood pressure changes of the mice are periodically detected, and the data such as blood, blood lipids, blood pressure and death data etc. of the mice are collected. […]

homozygous mice [2] = test: Survival of hypertensive (Dox) homozygous mice on high-fat diet, weekly methotrexate injection; type: in vivo; conditions: hypertension (Dox) combined with high-fat diet, methotrexate 1 mg/kg weekly, at 8 weeks of co-administration, control 43%, FIG. 12B
Source text: (§2) Homozygous mice, divided into 5 groups, are to fed with normal diet (Chow), high-fat diet (HF), high-fat diet plus boostin (HF+D), high-fat diet plus methotrexate (MTX) (HF+M), and high-fat diet plus boostin and methotrexate (HF+D+M). […] Homozygous mice are fed with normal diet (Chow) until 8 weeks old, and are fed with high fat diet HF (HF formula: 21.2% fat, 48.7% carbohydrate, 17.3% protein, and 0.25% cholesterol) for 8 weeks. The mice are divided in to groups, with each group having 15 mice. The HF group is fed with high-fat diet, and is injected with 100 μl of physiological saline weekly. The HF+M group is fed with high-fat diet, and is injected with methotrexate at a dose of 1 mg/kg once a week. The HF+D group is fed with high-fat diet and 1-2 mg/ml of doxycycline together with drinking water, and is injected with 100 μl of physiological saline weekly. The HF+D+M group is fed with high-fat diet, injected with methotrexate at a dose of 1 mg/kg once a week, and fed with doxycycline at 1-2 mg/ml together with drinking water. The blood pressure changes of the mice are periodically detected, and the data such as blood, blood lipids, blood pressure and death data etc. of the mice are collected.
As shown in FIGS. 11A to 11D, hypertension combined with a high-fat diet induce higher accumulation of triglycerides in the blood of mice. […]

homozygous mice [3] = test: Quantification of ascending aortic atherosclerotic plaques in homozygous mice on HF diet with/without Dox, weekly MTX; type: in vivo; conditions: hypertensive (Dox) homozygous mice fed HF diet for 8 weeks, control 46%, P<0.05, FIGS. 12C-D
Source text: Homozygous mice (Hom) and ApoE knockout mice (KO) are used as controls, the experiment is employed by dividing the mice into four groups, each group has 15 mice, four groups being normal diet group (Chow), high fat diet group (HF), higher fat diet group (H-HF) and ultra-high fat diet group (CH-HF). The mice are fed with normal diet group (Chow) until 8 weeks old and then are fed with different high fat diet, respectively being HF feed (HF formula: 21.2% fat, 48.7% carbohydrate, 17.3% protein, and 0.25% cholesterol), H-HF feed (H-HF formula: 21.2% fat, 48.7% carbohydrate, 17.3% protein, and 1.25% cholesterol), and CH-HF feed (CH-HF formula: 21.2% fat, 48.7% carbohydrate, 17.3% protein, 1.25% cholesterol, and 0.5% cholic acid). After 8 weeks of treatment, collecting the blood of the mice, detecting the body weight, heart weight, spleen weight and blood lipids of the mice, and isolating the mice aorta for oil red O staining so as to quantify the atherosclerotic plaque content.
as §1

homozygous mice [4] = test: Detection of cytokines and adhesion molecules in plasma of homozygous mice on HF diet with/without Dox, weekly MTX; type: in vivo
Source text: as §2
As shown in FIGS. 11A to 11D, hypertension combined with a high-fat diet induce higher accumulation of triglycerides in the blood of mice. The inventors, using homozygous mice, have studied the effects of methotrexate (MTX) (an anti-inflammatory drug) on cardiovascular. Male homozygous mice are fed with HF diet with/without the addition of doxycycline (Dox), and are further randomized by intraperitoneal injection of MTX or control (vector) weekly. […] Hypertension combined with a high-fat diet induced higher mortality of mice, but if injected with methotrexate weekly, the survival rate of mice is increased at 8 weeks of co-administration (74% versus 43%, FIG. 12B).

[5] = system: IL-6, ICAM-1, E-selectin, VCAM-1 expressions; conditions: general statement on the anti-inflammatory drug; cited from earlier work
[6] = system: patients suffering from long-term inflammatory diseases such as rheumatoid arthritis; conditions: clinically, low doses; patients with long-term inflammatory diseases such as rheumatoid arthritis; ref. [10]; cited from earlier work
[7] = hypertensive (Dox) homozygous mice, HF diet, MTX weekly, FIG. 12H-J
[8] = induced hypertensive MTX group compared with control group, FIGS. 12K-S

For `CN(Cc1cnc2nc(N)nc(N)c2n1)c1ccc(C(=O)N[C@@H](CCC(=O)O)C(=O)O)cc1` [MTX, methotrexate], the “blood pressure of the mice” value (homozygous mice [1]) was “would not alter”, the “survival rate of mice” value (homozygous mice [2]) was 74% and the atherosclerotic lesions (homozygous mice [3]) was 34%. For the same compound, the “plasma concentration of MCP-5, intercellular adhesion molecule-1 and vascular cell adhesion molecules” value (homozygous mice [4]; homozygous mice having normal blood pressure, HF diet, MTX weekly, FIG. 12H-J) was “would not produce any effect”, the “plasma concentration of intercellular adhesion molecule-1” value (homozygous mice [4]; [7]) was “would significantly reduce” and the “plasma concentration of monocyte chemoattractant protein (MCP)-5” value (homozygous mice [4]; [7]) was “would significantly reduce”. For the same compound, the “E-selectin level in plasma” value (homozygous mice [4]; [8]) was “decreased level”, the “IL-1β level in plasma” value (homozygous mice [4]; [8]) was “decreased level” and the “IL-6 level in plasma” value (homozygous mice [4]; [8]) was “decreased level”. The “IL-17 level in plasma” value (homozygous mice [4]; [8]) was “decreased level”, the “MCP-1 level in plasma” value (homozygous mice [4]; [8]) was “decreased level” and the “P-selectin level in plasma” value (homozygous mice [4]; [8]) was “decreased level”. For the same compound, the “granulocyte colony-stimulating factor level in plasma” value (homozygous mice [4]; [8]) was “decreased level”, the “interferon-γ level in plasma” value (homozygous mice [4]; [8]) was “decreased level” and the “tumor necrosis factor-α level in plasma” value (homozygous mice [4]; [8]) was “decreased level”. For the same compound, the “IL-6, ICAM-1, E-selectin, VCAM-1 expressions” value [5] was “can down-regulate” and the “cardiovascular risk in patients” value [6] was “could reduce cardiovascular risk”.
